The assay addresses T1, GlyT1 (Homo sapiens, UniProt P48067).
T1 construct: expressed in transfected cells
T1 sequence (P48067 1-706): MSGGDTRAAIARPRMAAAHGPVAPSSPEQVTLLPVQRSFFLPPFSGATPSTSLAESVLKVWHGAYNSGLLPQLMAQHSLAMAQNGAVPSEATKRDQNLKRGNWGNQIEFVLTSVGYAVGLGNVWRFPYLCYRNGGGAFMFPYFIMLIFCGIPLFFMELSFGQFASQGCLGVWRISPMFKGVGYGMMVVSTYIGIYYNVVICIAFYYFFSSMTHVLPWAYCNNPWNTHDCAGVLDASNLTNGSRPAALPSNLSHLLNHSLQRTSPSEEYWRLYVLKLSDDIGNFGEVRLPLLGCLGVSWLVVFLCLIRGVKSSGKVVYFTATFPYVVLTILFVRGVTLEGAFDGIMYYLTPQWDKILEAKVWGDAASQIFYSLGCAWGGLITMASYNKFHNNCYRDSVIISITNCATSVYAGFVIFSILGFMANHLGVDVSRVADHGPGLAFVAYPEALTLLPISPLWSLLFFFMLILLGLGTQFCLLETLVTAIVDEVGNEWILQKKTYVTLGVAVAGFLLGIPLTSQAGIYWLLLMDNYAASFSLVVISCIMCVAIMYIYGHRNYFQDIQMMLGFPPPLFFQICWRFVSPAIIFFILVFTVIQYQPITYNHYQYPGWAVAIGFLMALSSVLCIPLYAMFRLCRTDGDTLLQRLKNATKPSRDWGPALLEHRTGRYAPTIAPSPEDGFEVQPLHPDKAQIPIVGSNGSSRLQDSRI
The experiment in a line: Glycine Transporter 1 (GlyT1) uptake assay, scintillation proximity assay of [14C]-glycine uptake. Type of assay: cell-based. As to conditions: [14C]-glycine uptake; read-out: GlyT1 (pIC50) (converted). On the procedure:
Glycine Transporter 1 (GlyT1) Uptake Assay
HEK293 cells stably expressing hGlyT1c were plated onto 96-well Cytostar plates at a density of 4.5×10^4 cells per well in 100 μL of growth media (DMEM containing 10% fetal bovine serum) and incubated overnight in a 37° C., 10% CO2 incubator. The following day, stock compounds in 10 mM DMSO were serially diluted in DMSO, and 2× compound solutions were prepared by diluting compound again (1:100) in HBSS. […] Plates were then read on a MicroBeta plate counter (Perkin Elmer). Dose-response data for tested compounds were analyzed and curves were fit using a four parameter logistic fit to determine IC50 values. […]
A general note: Scintillation proximity formats need no separation of bound from free tracer.

Structures are written as SMILES. Bounds are passed on as bounds.

With `COc1c(S(C)(=O)=O)ccc(O[C@@H](C)C(F)(F)F)c1C(=O)N1CC(Oc2ccccc2)C1` [Example 194, 1-(3-Methanesulfonyl-2-methoxy-6-{[(2S)-1,1,1-trifluoropropan-2-yl]oxy}benzoyl)-3-phenoxyazetidine], the IC50 is below 100 nM.
Under `COc1c(C#N)ccc(C2(F)CCOCC2)c1C(=O)N1CC(c2ccc(F)cc2)C1` [Example 22, 4-(4-Fluorooxan-4-yl)-3-{[3-(4-fluorophenyl)azetidin-1-yl]carbonyl}-2-methoxybenzonitrile] stands above 10000 nM; under `COc1c(S(C)(=O)=O)ccc(O[C@@H](C)C(F)(F)F)c1C(=O)N1CC(c2ccc(C#N)cc2Cl)C1` [Example 236, 3-Chloro-4-[1-(3-methanesulfonyl-2-methoxy-6-{[(2S)-1,1,1-trifluoropropan-2-yl]oxy}benzoyl)azetidin-3-yl]benzonitrile], below 100 nM; under `C[C@H](Oc1ccc(C#N)c(Cl)c1C(=O)N1CC(c2ccc(C#N)cc2Cl)C1)C(F)(F)F` [Example 131, 2-Chloro-3-{[3-(2-chloro-4-cyanophenyl)azetidin-1-yl]carbonyl}-4-{[(2S)-1,1,1-trifluoropropan-2-yl]oxy}benzonitrile], below 100 nM.
For the compound `C[C@H](Oc1ccc(C#N)c(Cl)c1C(=O)N1CC(c2ccc(C(F)(F)F)cc2)C1)C(F)(F)F` [Example 107, 2-Chloro-3-({3-[4-(trifluoromethyl)phenyl]azetidin-1-yl}carbonyl)-4-{[(2S)-1,1,1-trifluoropropan-2-yl]oxy}benzonitrile], the IC50 was below 100 nM.
On to `CCc1cc(C(F)(F)F)cnc1C1CN(C(=O)c2c(O[C@@H](C)C(F)(F)F)ccc(C#N)c2OC)C1` [Example 8, (S)-3-(3-(3-ethyl-5-(trifluoromethyl)pyridin-2-yl)azetidine-1-carbonyl)-2-methoxy-4-((1,1,1-trifluoropropan-2-yl)oxy)benzonitrile], for which the IC50 was below 100 nM.
In the case of `C#Cc1cc(C(F)(F)F)cnc1C1CN(C(=O)c2c(O[C@@H](C)C(F)(F)F)ccc(C#N)c2OC)C1` [Example 7, (S)-3-(3-(3-ethynyl-5-(trifluoromethyl)pyridin-2-yl)azetidine-1-carbonyl)-2-methoxy-4-((1,1,1-trifluoropropan-2-yl)oxy)benzonitrile] it was 100 to 1000 nM; in that of `COc1c(C#N)ccc(O[C@H](C)C(F)(F)F)c1C(=O)N1CC(c2ccc(C(F)(F)F)cn2)C1` [Example 135, 2-Methoxy-3-{3-[5-(trifluoromethyl)pyridin-2-yl]azetidine-1-carbonyl}-4-{[(2R)-1,1,1-trifluoropropan-2-yl]oxy}benzonitrile], 100 to 1000 nM; in that of `COc1c(S(C)(=O)=O)ccc(OCC(F)(F)F)c1C(=O)N1CC(c2ccc3ncoc3c2)C1` [Example 247, 6-{1-[3-Methanesulfonyl-2-methoxy-6-(2,2,2-trifluoroethoxy)benzoyl]azetidin-3-yl}-1,3-benzoxazole], below 100 nM.
Under `C[C@H](Oc1ccc(C#N)c(Cl)c1C(=O)N1CC(c2ccc(F)c(F)c2)C1)C(F)(F)F` [Example 55, 2-Chloro-3-[3-(3,4-difluorophenyl)azetidine-1-carbonyl]-4-{[(2S)-1,1,1-trifluoropropan-2-yl]oxy}benzonitrile] stands 100 to 1000 nM; under `CC(Oc1ccc(C#N)c(Cl)c1C(=O)N1CC(c2cccnc2)C1)C(F)(F)F` (stereo not drawn) [Example 71, 2-Chloro-3-{[3-(pyridin-3-yl)azetidin-1-yl]carbonyl}-4-[(1,1,1-trifluoropropan-2-yl)oxy]benzonitrile], 100 to 1000 nM; under `COc1c(S(C)(=O)=O)ccc(OC(C)C)c1C(=O)N1CC(c2ccc(F)c(F)c2)C1` [Example 216, 3-(3,4-Difluorophenyl)-1-[3-methanesulfonyl-2-methoxy-6-(propan-2-yloxy)benzoyl]azetidine], 100 to 1000 nM.

The record behind these values is patent US10040759B2, “Substituted azetidinyl compounds as GlyT1 inhibitors” (DART NEUROSCIENCE (CAYMAN) LTD., priority 2014, dated 2018).
